# Measurements published in patent US20240228488A1 (TAKEDA PHARMACEUTICAL COMPANY LIMITED, priority 2021, published 2024).
# Assays:
# [1] = biological target: human activated kallikrein enzyme (Homo sapiens, UniProt P03952); test: Plasma kallikrein inhibition, fluorogenic PFR-AMC substrate, 500 pM activated kallikrein format; assay type: biochemical; settings: 500 pM activated kallikrein, 300 uM PFR-AMC, 30 min preincubation, 10 min reaction; read-out: Primary Dose Response Assay: Average EC50
# How it was run: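 High-enzyme format of the fluorogenic peptide assay, with EC50 taken from AMC signal: 500 pM activated kallikrein, 300 uM Pro-Phe-Arg-AMC, 30 min compound preincubation and 10 min reaction, all at room temperature, pH 7.5.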
# plasma kallikrein = biological target: T1, plasma kallikrein (Homo sapiens, UniProt P03952); test: Neat human plasma assay, FXIIa contact pathway-activated, PFR-AMC substrate; assay type: biochemical; settings: citrated human plasma 78% final, 10 nM human FXIIa, 100 μM PFR-AMC; read-out: Human Plasma Assay: IC90
# T1 construct: from tissue
# T1 sequence (P03952 391-638 limits assumed): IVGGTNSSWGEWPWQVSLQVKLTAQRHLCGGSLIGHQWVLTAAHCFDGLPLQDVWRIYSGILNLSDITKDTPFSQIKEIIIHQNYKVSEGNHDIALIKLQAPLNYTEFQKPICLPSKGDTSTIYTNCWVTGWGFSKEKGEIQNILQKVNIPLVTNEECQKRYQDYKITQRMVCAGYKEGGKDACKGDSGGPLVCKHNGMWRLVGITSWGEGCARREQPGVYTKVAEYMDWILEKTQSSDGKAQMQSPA
# T1 sequence (P03952 20-390 partner limits assumed): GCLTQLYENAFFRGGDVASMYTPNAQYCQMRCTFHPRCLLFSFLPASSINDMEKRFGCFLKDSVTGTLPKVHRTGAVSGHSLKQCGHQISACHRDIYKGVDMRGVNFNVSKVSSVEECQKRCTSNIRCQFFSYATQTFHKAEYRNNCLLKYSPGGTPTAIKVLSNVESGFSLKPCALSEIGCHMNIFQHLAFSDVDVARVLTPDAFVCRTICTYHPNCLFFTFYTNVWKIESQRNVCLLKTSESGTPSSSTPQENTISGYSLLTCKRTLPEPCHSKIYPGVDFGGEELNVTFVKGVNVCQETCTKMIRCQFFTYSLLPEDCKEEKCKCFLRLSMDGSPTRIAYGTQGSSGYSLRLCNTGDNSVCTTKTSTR
# How it was run: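 Compound inhibition of plasma kallikrein measured as PFR-AMC (100 μM) cleavage rate over 5 min at room temperature in 78% citrated human plasma activated with 10 nM FXIIa (Tris pH 7.5 buffer). IC50/IC90 from 4-parameter fit of rate versus inhibitor concentration.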
# human activated kallikrein enzyme, sequence (P03952 391-638 limits assumed): as the sequence (P03952 391-638 limits assumed) above
# human activated kallikrein enzyme, sequence (P03952 20-390 partner limits assumed): as the sequence (P03952 20-390 partner limits assumed) above
SMILES,EC50 [1] [nM],IC90 (plasma kallikrein) [nM]
"O=C(Nc1cc(NCc2cn3cc(C4CC4)cc(N4CCNC4=O)c3n2)ncn1)[C@H]1C[C@@H]1c1cc(Cl)ccn1 [Example 394, (1S,2S)-2-(4-chloropyridin-2-yl)-N-(6-(((6-cyclopropyl-8-(2-oxoimidazolidin-1-yl)imidazo[1,2-a]pyridin-2-yl)methyl)amino)pyrimidin-4-yl)cyclopropane-1-carboxamide]",< 1,400 to 1500
"O=C(Nc1cc(NCc2cn3cc(C4CC4)cc(COCCO)c3n2)ccn1)[C@H]1C[C@@H]1c1cccc(Cl)c1 [Example 288, (1S,2S)-2-(3-chlorophenyl)-N-(4-(((6-cyclopropyl-8-((2-hydroxyethoxy)methyl)imidazo[1,2-a]pyridin-2-yl)methyl)amino)pyridin-2-yl)cyclopropane-1-carboxamide]",< 1,1500 to 10000
"O=C(Nc1cc(NCc2cn3cc(C4CC4)cc(N4CCNCC4)c3n2)ncn1)[C@H]1C[C@@H]1c1cccc(Cl)c1 [Example 307, (1S,2S)-2-(3-chlorophenyl)-N-(6-(((6-cyclopropyl-8-(piperazin-1-yl)imidazo[1,2-a]pyridin-2-yl)methyl)amino)pyrimidin-4-yl)cyclopropane-1-carboxamide]",< 1,< 400
"Cc1ccnc([C@H]2C[C@@H]2C(=O)Nc2ncc(F)c(NCc3cn4cc(C5CC5)cc(N5CC(=O)N(CCOCc6ccccc6)C5=O)c4n3)n2)n1 (racemic) [Example 515, rac-(1S*,2S*)-N-(4-(((8-(3-(2-(benzyloxy)ethyl)-2,4-dioxoimidazolidin-1-yl)-6-cyclopropylimidazo[1,2-a]pyridin-2-yl)methyl)amino)-5-fluoropyrimidin-2-yl)-2-(4-methylpyrimidin-2-yl)cyclopropane-1-carboxamide]",< 1,400 to 1500
"Cc1ccnc([C@H]2C[C@@H]2C(=O)Nc2cc(NCc3cn4cc(C5CC5)cc(S(C)(=O)=O)c4n3)ncn2)n1 (racemic) [Example 322, rac-(1S*,2S*)—N-(6-(((6-cyclopropyl-8-(methylsulfonyl)imidazo[1,2-a]pyridin-2-yl)methyl)amino)pyrimidin-4-yl)-2-(4-methylpyrimidin-2-yl)cyclopropane-1-carboxamide]",< 1,400 to 1500
"Cc1nc([C@H]2C[C@@H]2C(=O)Nc2cc(NCc3cn4cc(C5CC5)cc(N5CC(=O)N(C)C5=O)c4n3)ncn2)ncc1F (racemic) [Example 489, rac-(1S*,2S*)—N-(6-(((6-cyclopropyl-8-(3-methyl-2,4-dioxoimidazolidin-1-yl)imidazo[1,2-a]pyridin-2-yl)methyl)amino)pyrimidin-4-yl)-2-(5-fluoro-4-methylpyrimidin-2-yl)cyclopropane-1-carboxamide]",< 1,400 to 1500
"Cc1ccnc([C@H]2C[C@@H]2C(=O)Nc2cc(OCc3cn4cc(C5CC5)cc(N5CC(=O)N(CCO)C5=O)c4n3)ncn2)n1 (racemic) [Example 33, rac-(1S*,2S*)—N-(6-((6-cyclopropyl-8-(3-(2-hydroxyethyl)-2,4-dioxoimidazolidin-1-yl)imidazo[1,2-a]pyridin-2-yl)methoxy)pyrimidin-4-yl)-2-(4-methylpyrimidin-2-yl)cyclopropane-1-carboxamide]",< 1,400 to 1500
"CCOC(=O)CN1CCN(c2cc(C3CC3)cn3cc(CNc4ccnc(NC(=O)[C@H]5C[C@@H]5c5cccc(Cl)c5)c4)nc23)CC1 [Example 600, ethyl 2-(4-(2-(((2-((1S,2S)-2-(3-chlorophenyl)cyclopropane-1-carboxamido)pyridin-4-yl)amino)methyl)-6-cyclopropylimidazo[1,2-a]pyridin-8-yl)piperazin-1-yl)acetate]",< 1,> 48000
"Cc1cc(NCc2cn3cc(C4CC4)cc(N4CC(=O)N(C)C4=O)c3n2)nc(NC(=O)[C@H]2C[C@@H]2c2nccc(C)n2)n1 (racemic) [Example 519, rac-(1S*,2S*)-N-(4-(((6-cyclopropyl-8-(3-methyl-2,4-dioxoimidazolidin-1-yl)imidazo[1,2-a]pyridin-2-yl)methyl)amino)-6-methylpyrimidin-2-yl)-2-(4-methylpyrimidin-2-yl)cyclopropane-1-carboxamide]",< 1,< 400
"Cc1ccnc([C@H]2C[C@@H]2C(=O)Nc2cc(NCc3nc4c(N5CC(=O)N(C)C5=O)cc(C5CC5)cn4c3F)ncn2)n1 [Example 379, (1S,2S)-N-(6-(((6-cyclopropyl-3-fluoro-8-(3-methyl-2,4-dioxoimidazolidin-1-yl)imidazo[1,2-a]pyridin-2-yl)methyl)amino)pyrimidin-4-yl)-2-(4-methylpyrimidin-2-yl)cyclopropane-1-carboxamide]",< 1,400 to 1500
"Cc1ccnc([C@H]2C[C@@H]2C(=O)Nc2cc(OCc3cn4cc(C5CC5)cc(N5CC(=O)N(CCOCc6ccccc6)C5=O)c4n3)ncn2)n1 (racemic) [Example 31, rac-(1S*,2S*)—N-(6-((8-(3-(2-(benzyloxy)ethyl)-2,4-dioxoimidazolidin-1-yl)-6-cyclopropylimidazo[1,2-a]pyridin-2-yl)methoxy)pyrimidin-4-yl)-2-(4-methylpyrimidin-2-ylcyclopropane-1-carboxamide]",1 to 10,10000 to 48000
"CN1CCC(F)(c2cc(C3CC3)cn3cc(CNc4cc(NC(=O)[C@H]5C[C@@H]5c5cccc(Cl)c5)ncn4)nc23)CC1 [Example 403, (1S,2S)-2-(3-chlorophenyl)-N-(6-(((6-cyclopropyl-8-(4-fluoro-1-methylpiperidin-4-yl)imidazo[1,2-a]pyridin-2-yl)methyl)amino)pyrimidin-4-yl)cyclopropane-1-carboxamide]",< 1,400 to 1500

# Results, then the compound that gave them:
EC50 [1] [nM],IC90 (plasma kallikrein) [nM],SMILES
< 1,< 400,"CN(C)C1CC(=O)N(c2cc(C3CC3)cn3cc(CNc4cc(NC(=O)[C@H]5C[C@@H]5c5cccc(Cl)c5)ncn4)nc23)C1 (stereo partly drawn) [Example I-18, (1S,2S)-2-(3-chlorophenyl)-N-(6-(((6-cyclopropyl-8-(4-(dimethylamino)-2-oxopyrrolidin-1-yl)imidazo[1,2-a]pyridin-2-yl)methyl)amino)pyrimidin-4-yl)cyclopropane-1-carboxamide]"
< 1,< 400,"O=C(Nc1cc(NCc2cn3cc(C4CC4)cc(N4CCOC4=O)c3n2)ccn1)[C@H]1C[C@@H]1c1cccc(Cl)c1 [Example I-238, (1S,2S)-2-(3-chlorophenyl)-N-(4-(((6-cyclopropyl-8-(2-oxooxazolidin-3-yl)imidazo[1,2-a]pyridin-2-yl)methyl)amino)pyridin-2-yl)cyclopropane-1-carboxamide]"
< 1,400 to 1500,"CN1CCC(Nc2cc(C3CC3)cn3cc(CNc4cc(NC(=O)[C@H]5C[C@@H]5c5cccc(Cl)c5)ncn4)nc23)CC1 [Example I-5, (1S,2S)-2-(3-chlorophenyl)-N-(6-(((6-cyclopropyl-8-((1-methylpiperidin-4-yl)amino)imidazo[1,2-a]pyridin-2-yl)methyl)amino)pyrimidin-4-yl)cyclopropane-1-carboxamide]"
< 1,1500 to 10000,"CN(C)C1CN(c2cc(C3CC3)cn3cc(CNc4ccnc(NC(=O)[C@H]5C[C@@H]5c5cccc(Cl)c5)c4)nc23)C1 [Example I-4, (1S,2S)-2-(3-chlorophenyl)-N-(4-(((6-cyclopropyl-8-(3-(dimethylamino)azetidin-1-yl)imidazo[1,2-a]pyridin-2-yl)methyl)amino)pyridin-2-yl)cyclopropane-1-carboxamide]"
